Where two headings read alike, the source gives them in different places. Each block holds one compound with its values, some of them ahead of it.
Tests used:
[1] = tested on: acetic acid (AA)-induced overactive bladder (OAB); assay: Cystometric parameters in acetic acid (AA)-induced overactive bladder (OAB) in anesthetized guinea-pigs; format: in vivo; settings: for Maximal ICI (intercontraction interval) increase, % of variation from basal values: 0.2% AA bladder infusion, anesthetized guinea-pigs; for Effect on ICI (intercontraction interval): from 10 min up to 60 min post-administration, 0.2% AA
Text: The effect of netupitant (N) was studied on cystometric parameters in acetic acid (AA)-induced overactive bladder (OAB) in anesthetized guinea-pigs. Results were compared with those obtained with a control and L-733,060 (L), another potent and selective NK1 receptor antagonist. Adult female guinea-pigs were anesthetized with urethane, and the jugular vein and urinary bladder were catheterized for drug administration and intravesical pressure recording, respectively. The urinary bladder was continuously infused with either saline or 0.2% AA. After 30 min stabilization, N, L or their vehicle (glucose 5%) were administered in separate animals (n=10 per group). Intercontraction interval (ICI, sec), and amplitude of micturition (AM, mmHg) were analyzed at 10, 20, 40 and 60 min post administration. For each dose, maximal effects were expressed as % of variation from respective basal values. ED50% (doses inducing a 50% increase in ICI) were calculated using linear regressions.

[2] = Pharmacokinetic profile of netupitant in humans after a single oral dose; format: in vivo; settings: for Cl/F / Kel / tlag / AUC(0-inf) / AUC(0-t) / Cmax / Tmax / half-life / Vd/F: healthy volunteers, mean, N = 4; for AUC(0-inf) / AUC(0-t) / Cmax / Tmax / half-life / Vd/F: human, plasma; for Vd/F: read-out: Vz/F
Procedure: The pharmacokinetic profile of netupitant (N) in humans was examined in a randomised, double-blind, placebo controlled study comprising 5 dose groups (10, 30, 100, 300 and 450 mg) with 6 subjects in each group, of whom four received netupitant and two received placebo.

SMILES: FC(F)(F)c1cc(CO[C@H]2CCCN[C@H]2c2ccccc2)cc(C(F)(F)F)c1 [L-733,060, reference compound]
- Maximal ICI (intercontraction interval) increase, % of variation from basal values ([1]; 3 mg/kg i.v.): +40±10%
- Maximal ICI (intercontraction interval) increase, % of variation from basal values ([1]; 10 mg/kg i.v.): +76±11%
- Maximal effect on amplitude of micturition (AM), % of variation from basal values ([1]; 10 mg/kg, 10 min after administration): −28±5%
- Effect on amplitude of micturition (AM) ([1]; 10 mg/kg, p<0.05 versus basal values): decreased significantly AM
- Effect on ICI (intercontraction interval) [1]: dose-dependently and significantly increased ICI
- ED50% (dose inducing a 50% increase in ICI) ([1]; i.v., calculated using linear regressions): 5.13 mg/kg

- Cl/F ([2]; 10 mg oral): 44.0 L/h
- Kel ([2]; 10 mg oral): 0.0435 h⁻¹
- tlag ([2]; 10 mg oral): 1.88 h
- Cl/F ([2]; 30 mg oral): 35.5 L/h
- Kel ([2]; 30 mg oral): 0.027 h⁻¹
- tlag ([2]; 30 mg oral): 1.75 h
- Cl/F ([2]; 100 mg oral): 22.1 L/h
- Kel ([2]; 100 mg oral): 0.0139 h⁻¹
- tlag ([2]; 100 mg oral): 1.88 h
- Cl/F ([2]; 300 mg oral): 12.6 L/h
- Kel ([2]; 300 mg oral): 0.0154 h⁻¹
- tlag ([2]; 300 mg oral): 0.81 h
- Cl/F ([2]; 450 mg oral): 10.6 L/h
- Kel ([2]; 450 mg oral): 0.0124 h⁻¹
- tlag ([2]; 450 mg oral): 1.26 h
- AUC(0-inf) ([2]; 10 mg oral): 233 ng·h/mL
- AUC(0-t) ([2]; 10 mg oral): 140 ng·h/mL
- Cmax ([2]; 10 mg oral): 8.76 ng/mL
- Tmax ([2]; 10 mg oral): 5.75 h
- half-life ([2]; 10 mg oral): 16 h
- Vd/F ([2]; 10 mg oral): 1010 L
- AUC(0-inf) ([2]; 30 mg oral): 995 ng·h/mL
- AUC(0-t) ([2]; 30 mg oral): 870 ng·h/mL
- Cmax ([2]; 30 mg oral): 36 ng/mL
- Tmax ([2]; 30 mg oral): 5.76 h
- half-life ([2]; 30 mg oral): 29.1 h
- Vd/F ([2]; 30 mg oral): 1320 L
- AUC(0-inf) ([2]; 100 mg oral): 4800 ng·h/mL
- AUC(0-t) ([2]; 100 mg oral): 4360 ng·h/mL
- Cmax ([2]; 100 mg oral): 168 ng/mL
- Tmax ([2]; 100 mg oral): 5 h
- half-life ([2]; 100 mg oral): 54.2 h
- Vd/F ([2]; 100 mg oral): 1710 L
- AUC(0-inf) ([2]; 300 mg oral): 25200 ng·h/mL
- AUC(0-t) ([2]; 300 mg oral): 23100 ng·h/mL
- Cmax ([2]; 300 mg oral): 747 ng/mL
- Tmax ([2]; 300 mg oral): 5 h
- half-life ([2]; 300 mg oral): 48.1 h
- Vd/F ([2]; 300 mg oral): 850 L
- AUC(0-inf) ([2]; 450 mg oral): 43700 ng·h/mL
- AUC(0-t) ([2]; 450 mg oral): 36600 ng·h/mL
- Cmax ([2]; 450 mg oral): 1130 ng/mL
- Tmax ([2]; 450 mg oral): 5.76 h
- half-life ([2]; 450 mg oral): 59.7 h
- Vd/F ([2]; 450 mg oral): 881 L
- Plasma exposure (Cmax and AUC) versus dose ([2]; oral 10-450 mg, humans): increased super-proportionally with dose
- Time at which maximum plasma levels are reached post-dose ([2]; oral administration, humans): approximately 5 hours
SMILES: Cc1ccccc1-c1cc(N2CCN(C)CC2)ncc1N(C)C(=O)C(C)(C)c1cc(C(F)(F)F)cc(C(F)(F)F)c1 [netupitant, 2-[3,5-bis(trifluoromethyl)phenyl]-N,2-dimethyl-N-[4-(2-methylphenyl)-6-(4-methylpiperazin-1-yl)pyridin-3-yl]propanamide]
- Maximal ICI (intercontraction interval) increase, % of variation from basal values ([1]; 0.1 mg/kg i.v.): +51±15%
- Maximal ICI (intercontraction interval) increase, % of variation from basal values ([1]; 0.3 mg/kg i.v.): +44±8%
- Maximal ICI (intercontraction interval) increase, % of variation from basal values ([1]; 1 mg/kg i.v.): +69±8%
- Maximal effect on amplitude of micturition (AM), % of variation from basal values ([1]; 1 mg/kg, 20 min after administration): −13±6%
- Maximal ICI (intercontraction interval) increase, % of variation from basal values ([1]; 3 mg/kg i.v.): +96±20%
- ED50 ([1]; Cavia porcellus, iv, calculated using linear regressions, read-out: ED50% (dose inducing a 50% increase in ICI)): 0.62 mg/kg
- Potency relative to L in view of ED50% values ([1]; N versus L): about 16 fold
- Effect on amplitude of micturition (AM) ([1]; doses 0.1-3 mg/kg): devoid of significant effect on AM
- Effect on ICI (intercontraction interval) [1]: dose-dependently and significantly increased ICI

Source: patent US20100261734A1, “Methods of Treating Bladder Dysfunction Using Netupitant” (Helsinn Healthcare S.A., priority 2009, published 2010)
